≈ marks a conversion by molar mass, not a printed value. Blank lines part the entries; values can stand above or below the compound they belong to.
Legend:
Assay in all cases: ≥ marks a high value that may be exact or a test limit, other limits are often not marked, values filed in µg/mL are converted to µM
[1] = test system: Acinetobacter baumannii ATCC 19606
[2] = test system: Escherichia coli ATCC 25922
[3] = test system: Escherichia coli ATCC 8739
[4] = test system: Klebsiella pneumoniae ATCC 13883
[5] = test system: Pseudomonas aeruginosa ATCC 47085
[6] = test system: Staphylococcus aureus ATCC 29213
[7] = test system: Nocardia asteroides 201118
[8] = test system: Staphylococcus aureus ATCC 25923
[9] = test system: Candida albicans ATCC 90028
[10] = test system: Enterobacter cloacae HNTCC 53001
[11] = test system: Enterococcus faecalis ATCC 29212
[12] = test system: Klebsiella pneumoniae KK3 9904
[13] = test system: Proteus mirabilis ATCC 25933
[14] = test system: Pseudomonas aeruginosa ATCC 27853
[15] = test system: Staphylococcus aureus NCTC 8325
[16] = test system: Staphylococcus epidermidis RP62A
[17] = test system: Escherichia coli BW25113 ΔsbmA
Escherichia coli BW25113 = test system: Escherichia coli BW25113
[18] = test system: Klebsiella pneumoniae ATCC 700603
[19] = test system: Salmonella enterica subsp. enterica serovar Typhimurium ATCC 14028
[20] = test system: Corynebacterium glutamicum ATCC 13032
Escherichia coli HB101 = test system: Escherichia coli HB101
[21] = test system: Staphylococcus aureus ATCC 9144
Bacillus subtilis = test system: Bacillus subtilis
Pseudomonas aeruginosa = test system: Pseudomonas aeruginosa
Salmonella typhimurium = test system: Salmonella typhimurium
Staphylococcus aureus = test system: Staphylococcus aureus
Bacillus subtilis 168 = test system: Bacillus subtilis 168
[22] = test system: Candida albicans F7-39/IDE99
Escherichia coli B = test system: Escherichia coli B
[23] = test system: Micrococcus luteus CCM 144
Staphylococcus aureus 1 = test system: Staphylococcus aureus 1
[24] = test system: Staphylococcus aureus ATCC 43300
[25] = test system: Staphylococcus epidermidis
[26] = test system: Staphylococcus aureus ATCC 33591
[27] = test system: Staphylococcus epidermidis ATCC 35984

MIC [1]: 4.1 µM (≈ 11.7 µg/mL) | MIC [2]: 6.3 µM (≈ 17.9 µg/mL) | MIC [3]: 4.52 µM (≈ 12.9 µg/mL) | MIC [4]: 3.5 µM (≈ 9.97 µg/mL) | MIC [5]: 4.9 µM (≈ 14 µg/mL) | MIC [6]: 3.83 µM (≈ 10.9 µg/mL)
SMILES: CC[C@H](C)[C@H](NC(=O)CN)C(=O)NCC(=O)N[C@@H](C)C(=O)N[C@H](C(=O)N[C@@H](CC(C)C)C(=O)N[C@@H](CCCCN)C(=O)N[C@H](C(=O)N[C@@H](CC(C)C)C(=O)N[C@H](C(=O)N[C@H](C(=O)NCC(=O)N[C@@H](CC(C)C)C(=O)N1CCC[C@H]1C(=O)N[C@@H](C)C(=O)N[C@@H](CC(C)C)C(=O)N[C@H](C(=O)N[C@@H](CO)C(=O)N[C@@H](Cc1c[nH]c2ccccc12)C(=O)N[C@H](C(=O)N[C@@H](CCCCN)C(=O)N[C@@H](CCCN=C(N)N)C(=O)N[C@@H](CCCCN)C(=O)N[C@@H](CCCN=C(N)N)C(=O)N[C@@H](CCC(N)=O)C(=O)N[C@@H](CCC(N)=O)C(=O)O)[C@@H](C)CC)[C@@H](C)CC)[C@@H](C)O)[C@@H](C)O)C(C)C)C(C)C [GIGAVLKVLTTGLPALISWIKRKRQQ]

MIC [7]: 6.3 µM (≈ 11.5 µg/mL) | MIC [8]: 12.5 µM (≈ 22.8 µg/mL)
SMILES: CC[C@H](C)[C@H](NC(=O)[C@H](C)NC(=O)CNC(=O)[C@@H](NC(=O)[C@H](CC(C)C)NC(=O)[C@H](CC(C)C)NC(=O)[C@@H]1CCCN1C(=O)[C@H](CC(C)C)NC(=O)[C@@H](N)Cc1ccccc1)C(C)C)C(=O)N[C@@H](CO)C(=O)N[C@@H](CO)C(=O)N[C@H](C(=O)N[C@@H](CC(C)C)C(=O)N1CCC[C@H]1C(=O)N[C@@H](CCCCN)C(=O)N[C@H](C(=O)N[C@@H](Cc1ccccc1)C(N)=O)[C@@H](C)CC)[C@@H](C)CC [FLPLLVGAISSILPKIF]

MIC [9]: ≥ 80 µM | MIC [10]: 5 µM (≈ 13.5 µg/mL) | MIC [11]: > 80 µM | MIC [2]: 5 µM (≈ 13.5 µg/mL) | MIC [12]: 5 µM (≈ 13.5 µg/mL) | MIC [13]: ≥ 80 µM | MIC [14]: 5 µM (≈ 13.5 µg/mL) | MIC [15]: 20 µM (≈ 54 µg/mL) | MIC [16]: 10 µM (≈ 27 µg/mL)
SMILES: CC[C@H](C)[C@H](NC(=O)CNC(=O)[C@H](CCCCN)NC(=O)[C@H](Cc1ccccc1)NC(=O)[C@@H](NC(=O)[C@H](CCCCN)NC(=O)[C@H](CCCCN)NC(=O)[C@H](CC(C)C)NC(=O)[C@H](C)NC(=O)[C@H](CCCCN)NC(=O)[C@H](CC(C)C)NC(=O)CN)C(C)C)C(=O)N[C@@H](Cc1cnc[nH]1)C(=O)N[C@@H](CCCCN)C(=O)N[C@@H](C)C(=O)N[C@H](C(=O)N[C@@H](CCCCN)C(=O)N[C@@H](CC(C)C)C(=O)N[C@H](C(=O)N[C@@H](CC(N)=O)C(=O)N[C@@H](CC(N)=O)C(=O)N[C@@H](Cc1cnc[nH]1)C(=O)N[C@H](C(=O)N[C@@H](CCC(N)=O)C(=O)O)C(C)C)[C@@H](C)CC)[C@@H](C)CC [GLKALKKVFKGIHKAIKLINNHVQ]

MIC [1]: 16 µM (≈ 42.6 µg/mL) | MIC [2]: 4 µM (≈ 10.6 µg/mL) | MIC [17]: 16 µM (≈ 42.6 µg/mL) | MIC (Escherichia coli BW25113): 2 µM (≈ 5.32 µg/mL) | MIC [18]: 32 µM (≈ 85.1 µg/mL) | MIC [14]: > 64 µM | MIC [19]: 8 µM (≈ 21.3 µg/mL) | MIC [8]: > 64 µM
SMILES: CC[C@H](C)[C@H](NC(=O)[C@@H]1CCCN1C(=O)[C@@H]1CCCN1C(=O)[C@H](CCCN=C(N)N)NC(=O)[C@H](Cc1ccccc1)NC(=O)[C@@H](N)CCCN=C(N)N)C(=O)N[C@@H](CCCN=C(N)N)C(=O)N[C@@H](CCCN=C(N)N)C(=O)N1CCC[C@H]1C(=O)N1CCC[C@H]1C(=O)N[C@H](C(=O)N[C@@H](CCCN=C(N)N)C(=O)N1CCC[C@H]1C(=O)N1CCC[C@H]1C(=O)N[C@@H](Cc1ccccc1)C(=O)N[C@@H](Cc1ccc(O)cc1)C(=O)N1CCC[C@H]1C(=O)N1CCC[C@H]1C(=O)N[C@@H](Cc1ccccc1)C(=O)N[C@@H](CCCN=C(N)N)C(=O)N1CCC[C@H]1C(=O)O)[C@@H](C)CC [RFRPPIRRPPIRPPFYPPFRP]

MIC [20]: 0.8 µM (≈ 2.19 µg/mL) | MIC [2]: 6.3 µM (≈ 17.3 µg/mL) | MIC (Escherichia coli HB101): 3.1 µM (≈ 8.5 µg/mL) | MIC [14]: 12.5 µM (≈ 34.3 µg/mL) | MIC [21]: ≥ 100 µM
SMILES: CC[C@H](C)[C@H](NC(=O)[C@@H]1CCCN1C(=O)[C@H](CCCCN)NC(=O)[C@@H]1CCCN1C(=O)[C@H](CCCN=C(N)N)NC(=O)CNC(=O)[C@@H]1CCCN1C(=O)[C@H](Cc1ccccc1)NC(=O)[C@@H]1CCCN1C(=O)[C@H](CCCN=C(N)N)NC(=O)[C@@H]1CCCN1C(=O)[C@H](CCCN=C(N)N)NC(=O)CNC(=O)[C@@H]1CCCN1C(=O)[C@H](CO)NC(=O)[C@@H]1CCCN1C(=O)[C@H](Cc1c[nH]c2ccccc12)NC(=O)[C@H](CCCN=C(N)N)NC(=O)[C@@H](N)CO)C(=O)N[C@@H](Cc1ccccc1)C(=O)N[C@@H](CCCN=C(N)N)C(=O)N1CCC[C@H]1C(=O)N[C@@H](CCCN=C(N)N)C(=O)O [SRWPSPGRPRPFPGRPKPIFRPR]

MIC (Bacillus subtilis): 5.2 µM (≈ 12.4 µg/mL) | MIC (Escherichia coli HB101): 2.6 µM (≈ 6.18 µg/mL) | MIC (Pseudomonas aeruginosa): 5.2 µM (≈ 12.4 µg/mL) | MIC (Salmonella typhimurium): 1.3 µM (≈ 3.09 µg/mL) | MIC (Staphylococcus aureus): 20.8 µM (≈ 49.4 µg/mL)
SMILES: CC[C@H](C)[C@H](NC(=O)[C@@H](NC(=O)[C@@H]1CCCN1C(=O)[C@@H](NC(=O)[C@@H]1CCCN1C(=O)[C@H](CCCCN)NC(=O)[C@H](CCCCN)NC(=O)[C@H](CO)NC(=O)CN)C(C)C)[C@@H](C)CC)C(=O)N[C@@H](Cc1ccc(O)cc1)C(=O)N[C@H]1CSSC[C@@H](C(=O)N[C@@H](CCC(N)=O)C(=O)N[C@@H](CCCN=C(N)N)C(=O)N[C@@H](CCSC)C(=O)O)NC(=O)[C@H](CCCCN)NC(=O)[C@H]([C@@H](C)O)NC(=O)[C@H](CCCN=C(N)N)NC(=O)[C@H](CCCN=C(N)N)NC(=O)[C@H](CC(N)=O)NC1=O [GSKKPVPIIYCNRRTKCQRM]

MIC (Bacillus subtilis 168): 7 µM (≈ 12.9 µg/mL) | MIC [22]: ≥ 34 µM | MIC (Escherichia coli B): 20 µM (≈ 36.8 µg/mL) | MIC [23]: 3 µM (≈ 5.52 µg/mL) | MIC [14]: 6.8 µM (≈ 12.5 µg/mL) | MIC (Pseudomonas aeruginosa): 19 µM (≈ 35 µg/mL) | MIC (Staphylococcus aureus 1): 11 µM (≈ 20.2 µg/mL) | MIC [24]: 26 µM (≈ 47.8 µg/mL) | MIC (Staphylococcus aureus): 27 µM (≈ 49.7 µg/mL) | MIC [25]: 2.5 µM (≈ 4.6 µg/mL)
SMILES: CC[C@H](C)[C@H](NC(=O)[C@H](CCCCN)NC(=O)[C@H](CCCCN)NC(=O)[C@H](CC(C)C)NC(=O)[C@H](CCCCN)NC(=O)[C@H](CCCCN)NC(=O)[C@H](Cc1c[nH]c2ccccc12)NC(=O)[C@H](CC(C)C)NC(=O)[C@H](CO)NC(=O)[C@H](CO)NC(=O)[C@H](CC(C)C)NC(=O)[C@H](CCCCN)NC(=O)CN)C(=O)N[C@H](C(=O)N[C@@H](C)C(=O)N[C@@H](CCCCN)C(N)=O)[C@@H](C)CC [GKLSSLWKKLKKIIAK]

MIC [14]: > 371 µM | MIC [8]: > 371 µM | MIC [26]: ≥ 371 µM | MIC [27]: ≥ 371 µM
SMILES: CC(C)[C@H](NC(=O)[C@H](Cc1ccccc1)NC(=O)[C@H](C)NC(=O)[C@H](CCCCN)NC(=O)CNC(=O)[C@H](Cc1ccccc1)NC(=O)[C@H](CCCCN)NC(=O)[C@H](CCCCN)NC(=O)[C@H](C)NC(=O)[C@H](CCCCN)NC(=O)[C@@H](N)CCCCN)C(=O)N[C@@H](CCCCN)C(N)=O [KKAKKFGKAFVK]

Source: DBAASP
